Laboratory results published in patent US11613532B2, “Compounds active towards nuclear receptors” (NUEVOLUTION A/S, priority 2020, dated 2023).

The compounds below were run against RORγ (Homo sapiens (Human), UniProt P51449) (assay: RORγ Reporter Assay (Gal4)). Conditions: HEK293 cells co-transfected with RORγ LBD-Gal4 and luciferase reporter; 24 h incubation; absolute IC50.
Type: cell-based
Method: The activity of the compounds was evaluated using a RORγ Reporter assay (also referred to as Gal4 assay). The Gal4 and the Th17 assays (another suitable assay) are both cell-based assays monitoring functional activity of the compound assayed. The HEK293 cell line is co-transfected transiently with two plasmids, one with the RORγ ligand-binding domain fused to galactose-responsive transcription factor (Gal4), and the other with the luciferase reporter gene and Gal binding sites (UAS). This construction allows to determine the RORγ activity in a cellular system through the measurement of luminescence. […] Media formulation consisted in DMEM/F-12 medium (Gibco) supplemented with 10% heat inactivated FBS (Sigma-Aldrich), non-essential aminoacids (Sigma-Aldrich), 2 mM Glutamax (Gibco) and 100 U/mL penicillin (Sigma-Aldrich). Dose-response curves with compounds were prepared in 100% DMSO and further diluted […] in culture medium. Compound solutions were added to the plate containing cells (final DMSO concentration of 0.1%) and incubated for 24 h at 37° C. and 5% CO2. Luciferase detection reagent was added to each well, and relative light units (RLUs) were quantified from each assay well using a plate reading luminometer. Values of average RLU±S.D. were computed for all treatment sets, followed by the calculations of percent-reduction of RORγ activity in response to respective test compound. The following formula was used: activity=100*[1−[x test compound/average vehicle where the theoretical minimum reduction (0% reduction).

Sequence of RORγ (P51449 269-508): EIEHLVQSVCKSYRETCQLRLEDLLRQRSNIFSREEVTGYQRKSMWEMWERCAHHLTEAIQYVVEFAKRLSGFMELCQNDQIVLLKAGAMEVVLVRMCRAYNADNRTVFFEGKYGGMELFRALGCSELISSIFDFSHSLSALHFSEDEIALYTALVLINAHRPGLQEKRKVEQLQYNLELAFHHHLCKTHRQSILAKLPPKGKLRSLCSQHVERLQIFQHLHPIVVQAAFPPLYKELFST

| Structure (SMILES) | IC50 |
| --- | --- |
| CCN(C[C@H]1CC[C@H](C(F)(F)F)CC1)c1ncnc2c1ccn2C[C@]1(O)CCN(CC(N)=O)C[C@H]1O (single isomer, unassigned) [BD-5-1-1, 2-((3R*,4R*)-4-((4-(ethyl(((1r,4R)-4-(trifluoromethyl)cyclohexyl)methyl)amino)-7H-pyrrolo[2,3-d]pyrimidin-7-yl)methyl)-3,4-dihydroxypiperidin-1-yl)acetamide] | 3.3 nM |
| CCN(C[C@H]1CC[C@H](C(F)(F)F)CC1)c1ncnc(NC[C@@]2(O)CCN(CC(N)=O)C[C@@H]2O)c1F (single isomer, unassigned) [AD-6-1, 2-((3R*,4R*)-4-(((6-(ethyl(((1r,4R)-4-(trifluoromethyl)cyclohexyl)methyl)amino)-5-fluoropyrimidin-4-yl)amino)methyl)-3,4-dihydroxypiperidin-1-yl)acetamide] | 1.2 nM |
| CCN(C[C@H]1CC[C@H](C(F)(F)F)CC1)c1ncnc(NC[C@@]2(O)CCN(CC(N)=O)C[C@@H]2O)c1F (single isomer, unassigned) [AD-6-2, 2-((3R*,4R*)-4-(((6-(ethyl(((1r,4R)-4-(trifluoromethyl)cyclohexyl)methyl)amino)-5-fluoropyrimidin-4-yl)amino)methyl)-3,4-dihydroxypiperidin-1-yl)acetamide] | 15 nM |
| CCN(C[C@H]1CC[C@]2(CC1)CC2(F)F)c1ncnc(NC[C@@H]2CCN(CC(N)=O)C[C@H]2O)c1F (relative stereo) [Example A6-1-1-1, rel-2-((3R,4R)-4-(((6-(((1,1-Difluorospiro[2.5]octan-6-yl)methyl)(ethyl)amino)-5-fluoropyrimidin-4-yl)amino)methyl)-3-hydroxypiperidin-1-yl)acetamide] | 35 nM |
| CCN(CC1CCC2(CC1)CC2(F)F)c1ncnc(NC[C@H]2CCN(CC(N)=O)C[C@@H]2O)c1F (relative stereo) [Example A6-1-1-2, rel-2-((3R,4R)-4-(((6-(((1,1-Difluorospiro[2.5]octan-6-yl)methyl)(ethyl)amino)-5-fluoropyrimidin-4-yl)amino)methyl)-3-hydroxypiperidin-1-yl)acetamide] | 44 nM |
| CCN(C[C@H]1CC[C@H](C(F)(F)F)CC1)c1ncnc2c1ccn2C[C@]1(O)CCN(CC(N)=O)C[C@H]1O (single isomer, unassigned) [BD-5-1-2, 2-((3R*,4R*)-4-((4-(ethyl(((1r,4R)-4-(trifluoromethyl)cyclohexyl)methyl)amino)-7H-pyrrolo[2,3-d]pyrimidin-7-yl)methyl)-3,4-dihydroxypiperidin-1-yl)acetamide] | 4.3 nM |

The next lines start with the values.

| IC50 | Structure (SMILES) |
| --- | --- |
| 690 nM | CCN(CC1CCC2(CC1)COC2)c1ncnc(NC[C@@H]2CCN(CC(N)=O)C[C@H]2O)c1F (single isomer, unassigned) [Example A6-6-1] |
| 980 nM | CCN(CC1CCC2(CC1)COC2)c1ncnc(NC[C@@H]2CCN(CC(N)=O)C[C@H]2O)c1F (single isomer, unassigned) [Example A6-6-2] |
| 49 nM | CCN(C[C@H]1CC[C@@]2(CC1)CC2(F)F)c1ncnc(NC[C@@H]2CCN(CC(N)=O)C[C@H]2O)c1F (single isomer, unassigned) [Example A6-1-2-1] |
| 69 nM | CCN(CC1(F)CCC(C(F)(F)F)CC1)c1ncnc(NC[C@@H]2CCN(CC(N)=O)C[C@H]2O)c1F (single isomer, unassigned) [Example A6-7-2] |
| 43 nM | CCN(CC1(F)CCC(C(F)(F)F)CC1)c1ncnc(NC[C@@H]2CCN(CC(N)=O)C[C@H]2O)c1F (single isomer, unassigned) [Example A6-7-1] |
| 17 nM | NC(=O)CN1CC[C@@H](CNc2ncnc(N(C[C@H]3CC[C@H](C(F)(F)F)CC3)C3CCC3)c2F)[C@H](O)C1 (racemic) [Example A6-5, 2-((3RS,4RS)-4-(((6-(cyclobutyl(((1r,4R)-4-(trifluoromethyl)cyclohexyl)methyl)amino)-5-fluoropyrimidin-4-yl)amino)methyl)-3-hydroxypiperidin-1-yl)acetamide] |

What follows are compounds tested on plasma IL-17A (assay: In vivo IL-17A induction in anti-CD3 model in mice). Conditions: male C57BL/6JRj mice, anti-CD3e induced plasma IL-17A, oral gavage twice daily day 0 to day 3, 3 mg/kg.
Method: Compounds disclosed herein have also been evaluated in a mouse in vivo pharmacodynamic model (anti-CD3-induced plasma IL-17A).
Male C57BL/6JRj mice (7 week old) were purchased from Janvier Labs and housed at the animal facilities of Almirall throughout the study. Animals were allowed to condition for 5 days in their new environment at 22° C.±2° C., 55%±10% relative humidity and 12 h:12 h light:dark cycles. Animals were housed in polycarbonate cages, with free access to water and non-purified stock diet (2014 Teklad Global 14% Protein Rodent Maintenance Diet, Envigo) during the full course of the studies. […]
Mice were injected intraperitoneally with 7.5 μg of anti-CD3e (Clone 145-2C11 from Pharmingen BD) at 0 h (day 0) and 48 h (day 3) time-points. […] Plasma levels of IL-17A were measured by ELISA (R&D Systems) according to the manufacturer's instruction. Results were calculated as the percentage of reduction of plasma IL-17A versus the difference between non-induced and anti-CD3e induced groups through the formula: inhibition=100*[1−[(x−mean non-induced)/(mean control vehicle−mean non-induced)]]. The IL-17A inhibition for each treatment can be expressed as the mean for each treatment group±S.E.M. Statistical analysis of data were conducted with one-way ANOVA followed by Dunnett's multiple comparisons test when appropriate. […]

| Structure (SMILES) | Inhibition of IL-17A (%) at 3 mg/kg |
| --- | --- |
| CCN(C[C@H]1CC[C@H](C(F)(F)F)CC1)c1ncnc(NC[C@@]2(O)CCN(CC(N)=O)C[C@@H]2O)c1F (single isomer, unassigned) [AD-6-1, 2-((3R*,4R*)-4-(((6-(ethyl(((1r,4R)-4-(trifluoromethyl)cyclohexyl)methyl)amino)-5-fluoropyrimidin-4-yl)amino)methyl)-3,4-dihydroxypiperidin-1-yl)acetamide] | 95% |
